Active and inactive are the calls of the source.
Experiments:
Homo sapiens [1] = organism: Homo sapiens; experiment: (§1) Displacement of Mant-ATP from human recombinant UCK by fluorescence competition assay
Homo sapiens [2] = organism: Homo sapiens; experiment: Binding affinity to human recombinant UCK ATP binding site
Homo sapiens [3] = organism: Homo sapiens; experiment: Displacement of MABA-CDP from human recombinant UCK by fluorescence competition assay
[4] = Inhibition of human recombinant UCK by Double reciprocal plot analysis
[5] = target: Thymidine kinase, cytosolic (Homo sapiens) (UniProt P04183); experiment: Inhibition of human recombinant TK1-mediated thymidine phosphorylation ar 0.3 mM
Chain of Thymidine kinase, cytosolic (Homo sapiens) (P04183 whole entry): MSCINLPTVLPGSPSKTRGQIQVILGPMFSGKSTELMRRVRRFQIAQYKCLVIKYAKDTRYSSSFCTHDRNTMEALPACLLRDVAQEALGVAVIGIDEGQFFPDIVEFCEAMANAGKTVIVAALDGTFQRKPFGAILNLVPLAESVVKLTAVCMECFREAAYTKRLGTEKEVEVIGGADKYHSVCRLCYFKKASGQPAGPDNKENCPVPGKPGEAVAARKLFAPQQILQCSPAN

Homo sapiens [6] = organism: Homo sapiens; experiment: Binding affinity to human recombinant UCK dCMP binding site
[7] = as §1; conditions: read-out: Kd(app)
Homo sapiens [8] = organism: Homo sapiens; experiment: Activity at human recombinant UCK by Michaelis-Menten equation analysis
[9] = target: Thymidine kinase 2, mitochondrial (Homo sapiens) (UniProt O00142); experiment: Inhibition of human recombinant TK2-mediated thymidine phosphorylation ar 0.3 mM
Chain of Thymidine kinase 2, mitochondrial (Homo sapiens) (O00142 whole entry): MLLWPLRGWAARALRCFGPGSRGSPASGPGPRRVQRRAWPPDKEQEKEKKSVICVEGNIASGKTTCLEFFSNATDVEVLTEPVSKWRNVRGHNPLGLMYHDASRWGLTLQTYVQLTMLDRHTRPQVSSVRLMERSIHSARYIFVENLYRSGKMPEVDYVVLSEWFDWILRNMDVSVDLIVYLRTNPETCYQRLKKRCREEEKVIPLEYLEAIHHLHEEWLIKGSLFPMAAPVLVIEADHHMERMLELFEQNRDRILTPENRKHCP

Human alphaherpesvirus 3 [10] = experiment: Antiviral activity against thymidine kinase-deficient VZV 07/1 infected in human HEL cells assessed as reduction of virus-induced cytopathogenicity after 5 days; assay type: functional, organism-based; conditions: Human alphaherpesvirus 3, 07/1, HEL, 120 h
[11] = Cytotoxicity against human HEL cells after 3 days; assay type: cell-based
Human betaherpesvirus 5 = experiment: Antiviral activity against HCMV AD169/Davis infected in human HEL cells assessed as reduction of virus-induced cytopathogenicity after 7 days; assay type: functional, organism-based; conditions: Human betaherpesvirus 5, AD169/Davis, 168 h
Homo sapiens [12] = organism: Homo sapiens; experiment: Binding affinity to human recombinant UCK by circular dichroism analysis
Human alphaherpesvirus 1 [13] = experiment: Antiviral activity against HSV1 KOS infected in human HEL cells assessed as reduction of virus-induced cytopathogenicity after 7 days; assay type: functional, organism-based; conditions: Human alphaherpesvirus 1, KOS, 168 h
Human alphaherpesvirus 1 [14] = experiment: Antiviral activity against acyclovir-resistant thymidine kinase deficient HSV1 KOS infected in human HEL cells assessed as reduction of virus-induced cytopathogenicity after 7 days; assay type: functional, organism-based; conditions: Human alphaherpesvirus 1, KOS, 168 h
Human alphaherpesvirus 2 = experiment: Antiviral activity against HSV2 G infected in human HEL cells assessed as reduction of virus-induced cytopathogenicity after 7 days; assay type: functional, organism-based; conditions: Human alphaherpesvirus 2, strain G, 168 h
Human alphaherpesvirus 3 [15] = experiment: Antiviral activity against VZV OKA expressing thymidine kinase infected in human HEL cells assessed as reduction of virus-induced cytopathogenicity after 5 days; assay type: functional, organism-based; conditions: Human alphaherpesvirus 3, OKA, 120 h
[16] = substrate: Cc1cn([C@H]2C[C@H](O)[C@@H](COP(=O)(O)O)O2)c(=O)[nH]c1=O; experiment: (§2) Ratio of kcat/km for human recombinant TMPK by Michaelis-Menten equation analysis
[17] = substrate: O=c1[nH]c(=O)n(C/C=C/CP(=O)(O)O)cc1F; experiment: as §2
[18] = substrate: O=c1ccn([C@H]2C[C@H](O)[C@@H](COP(=O)(O)O)O2)c(=O)[nH]1; experiment: as §2
[19] = substrate: Cc1cn([C@H]2C[C@H](N=[N+]=[N-])[C@@H](COP(=O)(O)O)O2)c(=O)[nH]c1=O; experiment: as §2
[20] = substrate: Cc1cn(C/C=C/CP(=O)(O)O)c(=O)[nH]c1=O; experiment: as §2
[21] = substrate: O=c1[nH]c(=O)n(C/C=C/CCP(=O)(O)O)cc1Cl; experiment: as §2
[22] = substrate: O=c1[nH]c(=O)n(C/C=C/CP(=O)(O)O)cc1Cl; experiment: as §2
[23] = substrate: O=c1[nH]c(=O)n(C/C=C/CP(=O)(O)O)cc1Br; experiment: as §2
[24] = substrate: O=c1ccn(C/C=C/CCP(=O)(O)O)c(=O)[nH]1; experiment: as §2
[25] = substrate: O=c1[nH]c(=O)n([C@H]2C[C@H](O)[C@@H](COP(=O)(O)O)O2)cc1Br; experiment: as §2
[26] = substrate: O=c1[nH]c(=O)n(C/C=C/CCP(=O)(O)O)cc1Br; experiment: as §2
[27] = substrate: O=c1[nH]c(=O)n(C/C=C/P(=O)(O)O)cc1Cl; experiment: as §2
[28] = substrate: Cc1cn(C/C=C/P(=O)(O)O)c(=O)[nH]c1=O; experiment: as §2
[29] = substrate: O=c1ccn(C/C=C/CP(=O)(O)O)c(=O)[nH]1; experiment: as §2
[30] = substrate: Cc1cn(C/C=C/CCP(=O)(O)O)c(=O)[nH]c1=O; experiment: as §2
[31] = substrate: O=c1[nH]c(=O)n(C/C=C/CCP(=O)(O)O)cc1F; experiment: as §2
[32] = substrate: Cc1cn([C@H]2C[C@H](O)[C@@H](COP(=O)(O)O)O2)c(=O)[nH]c1=O; experiment: (§3) Activity at human recombinant TMPK by Michaelis-Menten equation analysis
[33] = substrate: O=c1[nH]c(=O)n(C/C=C/CP(=O)(O)O)cc1F; experiment: as §3
[34] = substrate: O=c1ccn([C@H]2C[C@H](O)[C@@H](COP(=O)(O)O)O2)c(=O)[nH]1; experiment: as §3
[35] = substrate: Cc1cn(C/C=C/CP(=O)(O)O)c(=O)[nH]c1=O; experiment: as §3
[36] = substrate: O=c1[nH]c(=O)n(C/C=C/CCP(=O)(O)O)cc1Cl; experiment: as §3
[37] = substrate: O=c1[nH]c(=O)n(C/C=C/CP(=O)(O)O)cc1Cl; experiment: as §3
[38] = substrate: O=c1[nH]c(=O)n(C/C=C/CP(=O)(O)O)cc1Br; experiment: as §3
[39] = substrate: O=c1ccn(C/C=C/CCP(=O)(O)O)c(=O)[nH]1; experiment: as §3
[40] = substrate: O=c1[nH]c(=O)n([C@H]2C[C@H](O)[C@@H](COP(=O)(O)O)O2)cc1Br; experiment: as §3
[41] = substrate: O=c1[nH]c(=O)n(C/C=C/CCP(=O)(O)O)cc1Br; experiment: as §3
[42] = substrate: Cc1cn(C/C=C/P(=O)(O)O)c(=O)[nH]c1=O; experiment: as §3
[43] = substrate: O=c1ccn(C/C=C/CP(=O)(O)O)c(=O)[nH]1; experiment: as §3
[44] = substrate: Cc1cn(C/C=C/CCP(=O)(O)O)c(=O)[nH]c1=O; experiment: as §3
[45] = substrate: O=c1[nH]c(=O)n(C/C=C/CCP(=O)(O)O)cc1F; experiment: as §3

C[C@H](Cn1cnc2c(N)ncnc21)OCP(=O)(O)O
Activity (Homo sapiens [1]): inactive

O=c1[nH]c(=O)n(C/C=C/CP(=O)(O)O)cc1Cl
Activity (Homo sapiens [2]): Active | Activity (Homo sapiens [3]): inactive | Ki [4]: 250 µM | inhibition [5]: 15% | Activity (Homo sapiens [6]): Active | Kd [7]: 170 µM | Activity (Homo sapiens [8]): inactive | inhibition [9]: 15%

Cc1cn(C/C=C/CP(=O)(O)O)c(=O)[nH]c1=O
Activity (Homo sapiens [3]): inactive | Ki [4]: 1200 µM | Activity (Homo sapiens [8]): inactive

Nc1ccn(C[C@@H](CO)OCP(=O)(O)O)c(=O)n1 [CIDOFOVIR]
EC50 (Human alphaherpesvirus 3 [10]): 0.07 µM | CC50 at 72 h [11]: 280 µM | MCC at 72 h [11]: > 250 µM | EC50 (Human betaherpesvirus 5): 1.2 µM | Activity (Homo sapiens [12]): inactive | EC50 (Human alphaherpesvirus 1 [13]): 3.5 µM | Activity (Homo sapiens [1]): inactive | EC50 (Human alphaherpesvirus 1 [14]): 2.5 µM | EC50 (Human alphaherpesvirus 2): 2 µM | EC50 (Human alphaherpesvirus 3 [15]): 0.044 µM

Cc1cn(C/C=C/CP(=O)(OCOC(=O)C(C)(C)C)OCOC(=O)C(C)(C)C)c(=O)[nH]c1=O
EC50 (Human alphaherpesvirus 3 [10]): 0.19 µM | Activity (Homo sapiens [3]): inactive | CC50 at 72 h [11]: 35 µM | MCC at 72 h [11]: ≥ 200 µM | EC50 (Human betaherpesvirus 5): > 40 µM | EC50 (Human alphaherpesvirus 1 [13]): 3.1 µM | Activity (Homo sapiens [8]): inactive | EC50 (Human alphaherpesvirus 1 [14]): 9.2 µM | EC50 (Human alphaherpesvirus 2): 6.1 µM | EC50 (Human alphaherpesvirus 3 [15]): 0.41 µM

Nc1ncnc2c1ncn2CCOCP(=O)(O)O
Activity (Homo sapiens [1]): inactive

Nc1ccn([C@H]2C[C@H](O)[C@@H](COP(=O)(O)O)O2)c(=O)n1
Activity (Homo sapiens [12]): inactive

CC(C)(C)C(=O)OCOP(=O)(C/C=C\Cn1cc(Br)c(=O)[nH]c1=O)OCOC(=O)C(C)(C)C
EC50 (Human alphaherpesvirus 3 [10]): 110 µM | Activity (Homo sapiens [3]): inactive | CC50 at 72 h [11]: 70 µM | MCC at 72 h [11]: > 200 µM | EC50 (Human betaherpesvirus 5): > 200 µM | EC50 (Human alphaherpesvirus 1 [13]): > 200 µM | Activity (Homo sapiens [8]): inactive | EC50 (Human alphaherpesvirus 1 [14]): > 200 µM | EC50 (Human alphaherpesvirus 2): 45 µM | EC50 (Human alphaherpesvirus 3 [15]): 97 µM

B1: Thymidylate kinase (Homo sapiens), P23919 (protein)
chain: MAARRGALIVLEGVDRAGKSTQSRKLVEALCAAGHRAELLRFPERSTEIGKLLSSYLQKKSDVEDHSVHLLFSANRWEQVPLIKEKLSQGVTLVVDRYAFSGVAFTGAKENFSLDWCKQPDVGLPKPDLVLFLQLQLADAAKRGAFGHERYENGAFQERALRCFHQLMKDTTLNWKMVDASKSIEAVHEDIRVLSEDAIRTATEKPLGELWK
kcat/Km [16]: 150000 M⁻¹ s⁻¹ | kcat/Km [17]: 730 M⁻¹ s⁻¹ | kcat/Km [18]: 28000 M⁻¹ s⁻¹ | kcat/Km [19]: 1000 M⁻¹ s⁻¹ | kcat/Km [20]: 35000 M⁻¹ s⁻¹ | kcat/Km [21]: 660 M⁻¹ s⁻¹ | kcat/Km [22]: 4100 M⁻¹ s⁻¹ | kcat/Km [23]: 45000 M⁻¹ s⁻¹ | kcat/Km [24]: 30 M⁻¹ s⁻¹ | kcat/Km [25]: 120000 M⁻¹ s⁻¹ | kcat/Km [26]: 360 M⁻¹ s⁻¹ | kcat/Km [27]: 80 M⁻¹ s⁻¹ | kcat/Km [28]: 600 M⁻¹ s⁻¹ | kcat/Km [29]: 280 M⁻¹ s⁻¹ | kcat/Km [30]: 3200 M⁻¹ s⁻¹ | kcat/Km [31]: 47 M⁻¹ s⁻¹ | Km [32]: 20 µM | kcat [32]: 3 s⁻¹ | Km [33]: 1000 µM | kcat [33]: 0.73 s⁻¹ | Km [34]: 170 µM | kcat [34]: 4.8 s⁻¹ | Km [35]: 24 µM | kcat [35]: 0.84 s⁻¹ | Km [36]: 150 µM | kcat [36]: 0.1 s⁻¹ | Km [37]: 130 µM | kcat [37]: 0.5 s⁻¹ | Km [38]: 20 µM | kcat [38]: 0.9 s⁻¹ | Km [39]: 2500 µM | kcat [39]: 0.074 s⁻¹ | Km [40]: 10 µM | kcat [40]: 1.2 s⁻¹ | Km [41]: 160 µM | kcat [41]: 0.058 s⁻¹ | Km [42]: 1000 µM | kcat [42]: 0.6 s⁻¹ | Km [43]: 1700 µM | kcat [43]: 0.48 s⁻¹ | Km [44]: 100 µM | kcat [44]: 0.32 s⁻¹ | Km [45]: 1900 µM | kcat [45]: 0.09 s⁻¹
